Experimental findings from patent US7919486B2, “Use of gallium(III) complexes for the treatment of melanomas” (Niiki Pharma Inc., priority 2007, dated 2011) are described below.

One data set deals with SK-MEL-28. Briefly: cytotoxic activity in cell culture on melanoma cell line SK-MEL-28. The settings on record: SK-MEL-28 melanoma cell line obtained from human tumors. In kind it is cell-based. The method, then:
(§1) The compound of tris(hydroxyquinolinolato)gallium(III) was analyzed with respect to its cytotoxic activity in the cell culture on the melanoma cell lines obtained from human tumors.

The test system of another data set is SK-MEL-5. As to the kind of experiment: cytotoxic activity in cell culture on melanoma cell line SK-MEL-5. In kind it is cell-based. The conditions noted are these: SK-MEL-5 melanoma cell line obtained from human tumors. Here is the method: as §1

A word on the IC50: it is the concentration at which inhibition is half-maximal. Higher therefore signals weaker potency in that assay. With `c1cnc2c([O][Ga]([O]c3cccc4cccnc34)[O]c3cccc4cccnc34)cccc2c1` [tris(hydroxyquinolinolato)gallium(III)], the IC50 in the data set with SK-MEL-28 turned out to be 35 µM; with SK-MEL-5, 0.76 µM.
